One data set deals with membrane integrity. To be noted: cited from earlier work.
In the next data set the test system is E. coli. The settings on record: cited from earlier work.
The test system of data set [1] is BW25113 ArecA cells overexpressing lpcA gene (pLPCA). Type of data set: cell-based, E. coli. The settings on record: for OD600 at 24 hr: pLPCA cells. The protocol: (§1) FIGS. 17A-17B represent methods of identification of a gene related to restoring tolerance. Multiple genome-wide SCALE selection was performed in the presence of ethanol, furfural and acetate respectively. The data set obtained for each compound was compared to the others. Alleles enriched in all cases were identified. […] To restore tolerance, overexpression of identified genes in bacterial cells was performed. For example, lpcA ORF was cloned into the pBTL-1 vector. BW25113 ArecA cells transformed with the blank pBTL-1 vector were used as a control. BW25113 ArecA cells overexpressing lpcA gene were referred to as pLPCA. Cells were inoculated at a standard cell density into MOPS minimal media, supplemented with furfural, acetate or ethanol. After 24 hours, growth of the cells was analyzed.
(§2) The indicated cells were grown in MOPS minimal media supplemented with glucose as a carbon source. Furfural was added to the media at the concentration of 1 g/L. Arabinose was added at 10 mM where indicated to gauge effect of AraC binding. The BW25113 araC::FRT-kan clone corresponds to JW0063, a BW25113 araC knockout mutant ordered from the Keio Collection directly. pBTL-1 represented the blank vector, and pLPCA referred to lpcA gene overexpression. […] To analyze the LPS level in the cells indicated in FIG. 19, LPS are extracted from the cells grown to exponential phase. Loading of LPS for the protein gel is normalized to the cell number. The gel is stained to visualize LPS protein bands after desired separation is obtained.
(§3) BW25113, MG1655, and derivatives were used where indicated. JW0063, an araC mutant of BW25113 was obtained from the Coli Genetic Stock Center (Yale). Overnight bacterial cultures were grown in Luria-Bertani medium with shaking. MOPS minimal medium (previously presented) with 0.2% glucose as a carbon source, was used for all seed cultures and growth studies. Seed cultures were inoculated at 2 v/v % from an overnight culture and were grown to mid-exponential phase. Growth cultures were inoculated with 10 v/v % seed cultures of an OD600 of 0.195-0.200 for an initial optical density of ˜0.02. Carbenicillin and kanamycin were used where appropriate at 100 μg/ml and 30 μg/ml, respectively. The pBTL-1 vector (previously described) was used as the control blank vector for all growth studies. Genome-wide furfural selection

Data set [2] relates to BW25113 ArecA cells transformed with the blank pBTL-1 vector. The class given is cell-based, E. coli. The settings on record: control cells. The protocol:
as §1, §2, §3

The subject of data set [3] is pBTL-1 Control (blank vector) culture. The experiment in a line: Aerobic growth (specific growth, final OD600) in MOPS minimal media with inhibitor, control. The settings on record: for Specific Growth: n=3. Type of data set: cell-based, E. coli. The protocol: (§4) Certain experiments described herein were performed in E. coli BW25113 recA-, with the kanamycin resistance gene removed.
(§5) Cultures were grown in 10 ml MOPS minimal media, 100 μg carbenicillin/ml, and either 1 g furfural/1 supplemented, 2 g HMF/1, or 4 g acetate/1, in 15 ml conical tubes at 37° C. The optical density of 1 ml culture was measured with a spectrophotometer at 600 nm. A natural log transformation of the data was then calculated and then a regression line was fit to the data to calculate specific growth, which is […] to the culture doubling time. The blank vector, pBTL-1, served as the control. The lpcA gene was cloned into the pBTL-1 using standard cloning techniques and primers designed to amplify the gene from template DNA.

The test system of a further data set is pBTL-1 lpcA culture. Type of data set: cell-based, E. coli. To be noted: for Specific Growth: n=3. As to the method:
as §4, §5

The next data set relates to cell growth. The settings on record: concentrations as low as, cited from earlier work.
Another data set relates to E. coli LY01. To be noted: starting pH of 6.0, acid at the IC50 obtained at a neutral pH; cited from earlier work.
The test system of a further data set is bacterial cultures. The settings on record: amino acid 10 mM, acetic acid 2.5 g/L, MOPS minimal medium, FIG. 4.
For data set [4] the following is noted: furfural vs. furfuryl alcohol; cited from earlier work.
Another data set has as its system E. coli MC1022. To be noted: cited from earlier work.
[5] abbreviates: aerobic growth in 4 g/L acetate.
Setting [6] is: aerobic growth in 2 g/L hydroxymethyl furfural.

Like-named read-outs stand apart in the source and are kept apart here.

This is an account of results in patent US20130217132A1, “METHODS, COMPOSITIONS AND USE FOR ENHANCING CHEMICAL TOLERANCE BY MICROORGANISMS” (priority 2009, published 2013).

Description for bacterial cultures: In another exemplary method, amino acid supplementation of cultures was observed and illustrated by histogram plot. Overnight cultures were prepared from freezer stocks. Stationary phase overnight cultures were used for a 2.5% inoculation of 5 mL MOPS minimal medium plus carbenicillin. The OD600 was monitored until the culture reached an OD600=0.2. […] Amino acid supplementation was done by preparing stock solutions of amino acids and supplementing the media to a final concentration of 10 mM. Cultures were incubated at 37° C. and were shaken at 225 rpm. OD600 was monitored over the course of exponential growth and final measurements were taken after 24 hours. Specific growth rate was calculated by linear regression on the natural logarithm of the exponential phase OD600 over time.

`O=C(O)c1ccco1` [2-furoic acid]: in the data set on membrane integrity, the membrane leakage result is reported as “significant membrane leakage”.
On to `CC(=O)C=O` [Methylgloxal], for which the “concentration inhibiting E. coli growth and protein synthesis” value in the data set on E. coli is recorded as 0.07 g/L.
For `CC(=O)O` [acetate, acetic acid], in [1] (acetate 5 g/l), the “improvement of final optical density by pLPCA in BW25113” value stood at 47±4%. Further, the “OD600 at 24 hr” value in data set [1] (10 g/L of acetate) was determined as 1.4; in data set [2] (10 g/L of acetate), 0.75. Further, the “Final OD600 (24 hr)” value is reported as 0.111 in [3] (setting [5]) and 0.324 in the data set on pBTL-1 lpcA culture (setting [5]). Besides, the “Specific Growth” value worked out at 0.067 h⁻¹ in data set [3] (setting [5]) and 0.126 h⁻¹ with pBTL-1 lpcA culture (setting [5]). The “concentration that retards growth” value with cell growth was 0.5 g/L. Besides, in the data set on cell growth (minimal media), the “acetate concentration shown to inhibit cell growth by 50%” value was 0.5 g/L. Further, the “growth rate, percent that of control growth” value (“growth rate, percent that” for short) with E. coli LY01 is recorded as 0%.
For the molecule `N=C(N)NCCC[C@H](N)C(=O)O` [arginine], the “effect of amino acid supplementation on growth rate” value in the data set with bacterial cultures is “greatest increase in growth rate”.
As to `CCO` [ethanol], in data set [1] (ethanol 25 g/l), the “improvement of final optical density by pLPCA in BW25113” value is 37±3%. Besides, the results for the “OD600 at 24 hr” value in data set [1] (25 g/L of ethanol) and in data set [2] (25 g/L of ethanol) were 1.0 and 0.4, respectively.
`O=CO` [formic acid]: the “growth rate, percent that” value with E. coli LY01 is given as 35%.
With `OCc1ccco1` [furfuryl alcohol], the membrane leakage entry in the data set with membrane integrity is “significant membrane leakage”. Also, in data set [4], the “toxicity on a concentration basis” value is recorded as ~20 g/L.
For the molecule `O=Cc1ccc(CO)o1` [hydroxymethyl furfural, 5-(hydroxymethyl)-2-furaldehyde], the “Final OD600 (24 hr)” value in data set [3] (setting [6]) is 0.170; with pBTL-1 lpcA culture (setting [6]), 1.014. For the same molecule, the entries for the “Specific Growth” value (in data set [3] (setting [6]); in the data set with pBTL-1 lpcA culture (setting [6])) were 0.045 h⁻¹ and 0.234 h⁻¹, respectively.
For `CC(=O)CCC(=O)O` [levulinic acid], in the data set with E. coli LY01, the “growth rate, percent that” value is 10%.
As for `CSCC[C@H](N)C(=O)O` [methionine], in the data set with bacterial cultures, the “effect of amino acid supplementation on growth rate” value is reported as “greatest increase in growth rate”.
Turning to `COc1cc(C=O)ccc1O` [vanillin, 4-hydroxy-3-methoxybenzaldehyde], the figures for the “share of the population with membrane destabilization” value in the data set with E. coli MC1022 (treatment for one hour at over three times the minimum inhibitory concentration) and with E. coli MC1022 (when grown overnight after treatment) were 29% and 13%, respectively.
